Reference: patent US7183291B2 (Council of Scientific and Industrial Research, priority 1999, dated 2007)
Values joined by “and” are separate entries in the source; they are usually repeats but may differ in a detail not shown here. Equal entries are not always repeated.

Columns and labels:
[1] = system: P. cynomolgi B gametocytes; assay: Gametocytocidal test: infectivity of gametocytes from treated P. cynomolgi infected Rhesus monkeys to An. stephensi mosquitoes; type: in vivo
Method: For the gametocytocidal test, batches of 3–4 day old An. Stephensi were allowed to feed on P. cynomolgi infected Rhesus monkeys at appropriate gametocytaemia level. […] […] Mosquitoes were maintained as 26±1° C. under optimal insectary conditions. The infectivity rate and the oocyst counts were recorded on day 8. Mosquitoes were further maintained in the insectary to record the formation of sporozoites and the absence of sporozoites in some of the batches was also ensured by inoculation of mosquito homogenates into native monkeys.

[2] = system: developing oocysts of P. cynomolgi; assay: Effect on developing oocysts in An. stephensi mosquitoes (sporontocidal/oocysticidal action); type: in vivo; conditions: for % infectivity / No. of mosquitoes infected/dissected / oocyst number gut (Mean ± SD): Day 8 oocyst record
[3] = Methaemoglobin levels in Beagle dogs after 7-day oral treatment; conditions: dog, in vivo, 1.25 mg/kg
Method: Colony bred beagle dogs were maintained in the kennel house of the Institute and fed with a standard diet.
Treatment was administered once daily for seven doses (day 0–6), the day of the first dose being day 0. […] 5 ml. blood was collected from beagle dogs on day 0, 3, 7, 13 and 25 using potassium-oxalate crystals as anticoagulant. All the estimations/tests were conducted on the same day of collection of blood. Methaemoglobin was assayed by the method of Evelyn and Malloy (1938, J. Biol. Chem., 126, 655–662).

normal erythrocytes = assay: Reduced glutathione (GSH) in normal human erythrocytes after 3 h incubation; type: cell-based
Excerpt: (§1) Drug induced haemolysis is a serious complication in persons deficient in G-6-PD enzyme. The presence of reduced glutathione (GSH) in erythrocytes control the level of oxidative metabolites. Therefore, drugs, which cause lesser oxidation of GSH level are safe. […] G-6-PD deficiency was detected by the fluorescent spot screening test and confirmed by the enzyme assay method. Heparinised blood samples were collected from each individual and after centrifugation, the packed cells were washed three times with cold saline. […] GSH levels were estimated by the method of Bentler et al [Improved Method for the Determination of Blood Glutathione, J. Lab.

[4] = system: G-6-PD deficient erythrocytes; assay: Reduced glutathione (GSH) in G-6-PD deficient human erythrocytes after 3 h incubation; type: cell-based; conditions: 25 and 50 μg/ml of PQ and equivalent doses, P<0.001
Excerpt: as §1

sporozoites = assay: Infectivity test: mosquito homogenates inoculated into Rhesus monkeys; type: in vivo, P. cynomolgi; conditions: 11 batches; 1.87, 2.5, 3.75 and 5.00 mg base/kg; up to 60 days of observations
Method: For the gametocytocidal test, batches of 3–4 day old An. Stephensi were allowed to feed on P. cynomolgi infected Rhesus monkeys at appropriate gametocytaemia level. One hour after the control (pretreatment) feeding, compound of formula 1 was administered to the monkeys at 0.63, 1.25, 1.87, 2.5, 3.75 and 5.0 mg/kg in a single dose by oral route. Post-treatment feeding of batches of healthy mosquitoes was done at different times (5–48 hours). Mosquitoes were maintained as 26±1° C. under optimal insectary conditions. The infectivity rate and the oocyst counts were recorded on day 8. Mosquitoes were further maintained in the insectary to record the formation of sporozoites and the absence of sporozoites in some of the batches was also ensured by inoculation of mosquito homogenates into native monkeys.
Infectivity tests were carried out to ensure that there was no sporozoite development in the mosquito batches found negative for oocysts on day 8 following their feeding on drug treated monkeys. Homogenates of 40–50 mosquitoes each from 11 batches fed on gametocyte carrying monkeys treated with compound 1 at 1.87, 2.5, 3.75 and 5.00 mg base/kg were inoculated into native Rhesus monkeys.

[5] = 0.63 mg/kg single dose, feeding +5 hr
[6] = 0.63 mg/kg single dose, feeding +24 hr
[7] = 0.63 mg/kg single dose, feeding +48 hr
[8] = 0.63 mg/kg single dose, feeding −1 hr (pre-treatment)
[9] = 1.25 mg/kg single dose, feeding +5 hr
[10] = 1.25 mg/kg single dose, feeding +24 hr
[11] = 1.25 mg/kg single dose, feeding +48 hr
[12] = 1.25 mg/kg single dose, feeding −1 hr (pre-treatment)
[13] = 1.87 mg/kg single dose, feeding +24 hr
[14] = 1.87 mg/kg single dose, feeding +48 hr
[15] = 1.87 mg/kg single dose, feeding −1 hr (pre-treatment)
[16] = 3.75 mg/kg single dose, feeding +4 hr
[17] = 3.75 mg/kg single dose, feeding +5 hr
[18] = 3.75 mg/kg single dose, feeding +24 hr
[19] = 3.75 mg/kg single dose, feeding −1 hr (pre-treatment)
[20] = age of infection 24 hr, 50 mg/kg
[21] = age of infection 48 hr, 10 mg/kg
[22] = age of infection 48 hr, 50 mg/kg
[23] = age of infection 72 hr, 10 mg/kg
[24] = age of infection 72 hr, 50 mg/kg
[25] = age of infection 96 hr, 50 mg/kg
[26] = age of infection in mosquitoes 24 hr, fed on monkey given 10 mg/kg at −7 hr

## COc1cc(NC(C)CCCN/C(C)=C2/CCOC2=O)c2ncccc2c1 (stereo not drawn) [compound 1, N^1-(3-ethylidinotetrahydrofuran-2-one)-N^4-(6-methoxy-8-quinolinyl)-1,4-pentanediamine]
[1]; [5]
  % infectivity: (45.1) %
  No. of mosquitoes infected/dissected: 23/51
  Oocyst No. per gut (Mean ± SD): 10.22 ± 6.8
[1]; [6]
  % infectivity: (32.61) %
  No. of mosquitoes infected/dissected: 15/46
  Oocyst No. per gut (Mean ± SD): 2.93 ± 2.4
  Parasitaemia/mm^3 Asexual: 30024 /mm^3
  Parasitaemia/mm^3 Gametocytes: 1404 /mm^3
[1]; [7]
  % infectivity: (0) %
  No. of mosquitoes infected/dissected: 0/24
  Oocyst No. per gut (Mean ± SD): Nil
  Parasitaemia/mm^3 Asexual: 23220 /mm^3
  Parasitaemia/mm^3 Gametocytes: 756 /mm^3
[1]; [8]
  % infectivity: (90.0) %
  No. of mosquitoes infected/dissected: 27/30
  Oocyst No. per gut (Mean ± SD): 86.74 ± 39.2
  Parasitaemia/mm^3 Asexual: 48816 /mm^3
  Parasitaemia/mm^3 Gametocytes: 1728 /mm^3
[1]; 0.63 mg/kg, +5 h and +24 h post-treatment
  oocyst number and percent infectivity compared to control feedings at −1 hr: significant reduction
[1]; 0.63 mg/kg, batches fed +5 h and +24 h
  sporozoites in salivary gland dissections on day 15: presence of sporozoites
[1]; 0.63 mg/kg, mosquitoes fed at +48 hr
  oocysts over the midguts: No oocysts were observed
[1]; 1.25 mg/kg
  monkeys with marked oocyst decrease at 4–5 hr and no oocysts or sporozoites in batches fed +24 hr and +48 hr: 2/2
[1]; [9]
  No. of mosquitoes infected/dissected: 12/57 and 15/70
  Oocyst No. per gut (Mean ± SD): 2.17 ± 1.7 and 2.60 ± 1.7
[1]; [10]
  % infectivity: (0) %
  No. of mosquitoes infected/dissected: 0/36 and 0/30
  Oocyst No. per gut (Mean ± SD): Nil
[1]; [11]
  % infectivity: (0) %
  No. of mosquitoes infected/dissected: 0/24
  Oocyst No. per gut (Mean ± SD): Nil
  Parasitaemia/mm^3 Asexual: 15914 /mm^3
  Parasitaemia/mm^3 Gametocytes: 109 /mm^3
[1]; [12]
  No. of mosquitoes infected/dissected: 34/38 and 20/47
  Oocyst No. per gut (Mean ± SD): 22.35 ± 11.8 and 14.40 ± 7.29
  Parasitaemia/mm^3 Gametocytes: 1895 /mm^3 and 1026 /mm^3
[1]; 1.87 mg/kg
  monkeys with marked oocyst decrease at 4–5 hr and no oocysts or sporozoites in batches fed +24 hr and +48 hr: 2/2
[1]; 1.87 mg/kg single dose, feeding +4 hr
  No. of mosquitoes infected/dissected: 6/40 and 18/31
[1]; [13]
  % infectivity: (0) %
  No. of mosquitoes infected/dissected: 0/27 and 0/38
  Oocyst No. per gut (Mean ± SD): Nil and Nil**
  Parasitaemia/mm^3 Gametocytes: 530 /mm^3 and 798 /mm^3
[1]; [14]
  % infectivity: (0) %
  No. of mosquitoes infected/dissected: 0/24 and 0/21
  Oocyst No. per gut (Mean ± SD): Nil
  Parasitaemia/mm^3 Asexual: 7208 /mm^3 and 5130 /mm^3
  Parasitaemia/mm^3 Gametocytes: 212 /mm^3 and 228 /mm^3
[1]; [15]
  No. of mosquitoes infected/dissected: 25/30 and 23/25
  Parasitaemia/mm^3 Asexual: 33602 /mm^3 and 61560 /mm^3
  Parasitaemia/mm^3 Gametocytes: 1166 /mm^3 and 1026 /mm^3
[1]; 3.75 mg/kg
  monkeys with oocyst development completely blocked in batches fed 4–5 hr and +24 hr post-treatment: 5/5
[1]; [16]
  % infectivity: (0) %
  No. of mosquitoes infected/dissected: 0/25 and 0/21 and 0/41
  Oocyst No. per gut (Mean ± SD): Nil
[1]; [17]
  % infectivity: (0) %
  No. of mosquitoes infected/dissected: 0/30
  Oocyst No. per gut (Mean ± SD): Nil**
[1]; [18]
  % infectivity: (0) %
  No. of mosquitoes infected/dissected: 0/28 and 0/21 and 0/30 and 0/27
  Oocyst No. per gut (Mean ± SD): Nil and Nil**
[1]; [19]
  No. of mosquitoes infected/dissected: 26/27 and 15/22 and 33/40 and 22/22
  Parasitaemia/mm^3 Asexual: 55728 /mm^3 and 45796 /mm^3 and 68320 /mm^3 and 48336 /mm^3
[1]; 5.0 mg/kg
  monkeys with oocyst development completely blocked in batches fed 4–5 hr and +24 hr post-treatment: 3/3
[1]; 3.75 and 5.00 mg/kg
  time to render mature gametocytes non-infective to mosquitoes: 4 to 5 h
[1]; batches with blocked oocyst development (2.5, 3.75, 5.0 mg/kg)
  sporozoites in salivary gland dissections, days 14–20 post infective blood meal: did not show any sporozoites
[2]; 10–50 mg/kg
  sporontocidal/oocysticidal action on 24–96 hr old oocysts: absence of sporontocidal/oocysticidal action
[2]; [20]
  % infectivity: 85.19%
  No. of mosquitoes infected/dissected: 23/27
  oocyst number gut (Mean ± SD): 67.00 ± 43.58
[2]; [21]
  % infectivity: 100.0%
  No. of mosquitoes infected/dissected: 20/20
  oocyst number gut (Mean ± SD): 133.20 ± 96.22
[2]; [22]
  % infectivity: 78.79%
  No. of mosquitoes infected/dissected: 26/33
  oocyst number gut (Mean ± SD): 46.15 ± 36.70
[2]; [23]
  % infectivity: 88.00%
  No. of mosquitoes infected/dissected: 22/25
  oocyst number gut (Mean ± SD): 20.36 ± 17.81
[2]; [24]
  % infectivity: 86.21%
  No. of mosquitoes infected/dissected: 25/29
  oocyst number gut (Mean ± SD): 27.16 ± 20.60
[2]; [25]
  % infectivity: 69.23%
  No. of mosquitoes infected/dissected: 18/26
  oocyst number gut (Mean ± SD): 40.33 ± 27.38
[2]; [26]
  % infectivity: 85.00%
  No. of mosquitoes infected/dissected: 17/20
  oocyst number gut (Mean ± SD): 144.47 ± 60.35
[3]
  increase of Met-Hb values: 1.7 fold
Normal erythrocytes
  concentration at which fall in GSH levels reached statistical significance: 31.25 µg/mL
Normal erythrocytes; dose 1.25 μg/ml
  GSH (mg %) Mean ± SE: 44.08 ± 5.80 mg %
Normal erythrocytes; dose 6.25 μg/ml
  GSH (mg %) Mean ± SE: 42.50 ± 5.85 mg %
[4]
  decrease in GSH level compared to controls: statistically significant
sporozoites
  monkeys developing infection after inoculation of homogenates of 40–50 mosquitoes from oocyst-negative batches: None
other
  melting point: 118 to 120 °C
